{"source": "ChEMBL document CHEMBL4825691", "about": "“Antimicrobial, modulatory, and antibiofilm activity of tt-farnesol on bacterial and fungal strains of importance to human health” (2021)", "format_in_all_cases": "functional", "key": {"Enterococcus durans [1]": {"tested_on": "Enterococcus durans", "test": "Antibacterial activity against Enterococcus durans BIO 0114 assessed as inhibition of bacterial growth incubated for 24 hrs by microdilution assay"}, "Staphylococcus aureus [2]": {"tested_on": "Staphylococcus aureus", "test": "Antibiofilm activity against drug-resistant Staphylococcus aureus ATCC 43300 assessed as inhibition of biofilm formation incubated for 24 hrs by crystal violet staining based microtiter plate method"}, "[3]": {"tested_on": "Staphylococcus epidermidis", "test": "Antimicrobial activity against Staphylococcus epidermidis 70 D assessed assessed as reduction in bacterial growth at 1/4 times of drug MIC in the presence of vancomycin by microdilution method"}, "Enterococcus durans [4]": {"tested_on": "Enterococcus durans", "test": "Antibiofilm activity against drug-resistant Enterococcus durans BIO01 assessed as inhibition of biofilm formation incubated for 24 hrs by crystal violet staining based microtiter plate method"}, "[5]": {"tested_on": "Staphylococcus epidermidis", "test": "Bactericidal activity against Staphylococcus epidermidis ATCC 12228 assessed as bacterial killing incubated for 24 hrs by microdilution assay"}, "[6]": {"tested_on": "Staphylococcus epidermidis", "test": "Ratio of MBC to MIC against Staphylococcus epidermidis 70 D"}, "Escherichia coli [7]": {"tested_on": "Escherichia coli", "test": "Antibacterial activity against Escherichia coli ATCC 25922 assessed as inhibition of bacterial growth incubated for 24 hrs by microdilution assay"}, "Escherichia coli [8]": {"tested_on": "Escherichia coli", "test": "Antibacterial activity against Escherichia coli EPEC E234969 assessed as inhibition of bacterial growth incubated for 24 hrs by microdilution assay"}, "[9]": {"tested_on": "Staphylococcus epidermidis", "test": "Bactericidal activity against Staphylococcus epidermidis 70 D assessed as bacterial killing incubated for 24 hrs by microdilution assay"}, "Escherichia coli [10]": {"tested_on": "Escherichia coli", "test": "Antibacterial activity against Escherichia coli STEC 2C1 assessed as inhibition of bacterial growth incubated for 24 hrs by microdilution assay"}, "[11]": {"tested_on": "Staphylococcus epidermidis", "test": "Antibacterial activity against Staphylococcus epidermidis 70 D assessed as inhibition of bacterial growth incubated for 24 hrs by microdilution assay"}, "Streptococcus agalactiae [12]": {"tested_on": "Streptococcus agalactiae", "test": "Antibiofilm activity against drug-resistant Streptococcus agalactiae ATCC 13813 assessed as inhibition of biofilm formation incubated for 24 hrs by crystal violet staining based microtiter plate method"}, "Streptococcus sobrinus": {"tested_on": "Streptococcus sobrinus", "test": "Antimicrobial activity against Streptococcus sobrinus ATCC 27351 assessed assessed as reduction in bacterial growth at 1/8 times of drug MIC in the presence of Ampicillin by microdilution method"}, "Staphylococcus aureus [13]": {"tested_on": "Staphylococcus aureus", "test": "Antimicrobial activity against Staphylococcus aureus MED 55 assessed assessed as reduction in bacterial growth at 1/8 times of drug MIC in the presence of vancomycin by microdilution method"}, "Shigella flexneri": {"tested_on": "Shigella flexneri", "test": "Antibacterial activity against Shigella flexneri CCCD S006 assessed as inhibition of bacterial growth incubated for 24 hrs by microdilution assay"}, "Staphylococcus aureus [14]": {"tested_on": "Staphylococcus aureus", "test": "Antimicrobial activity against Staphylococcus aureus MED 55 assessed assessed as reduction in bacterial growth at 1/4 times of drug MIC in the presence of Oxacillin by microdilution method"}, "Streptococcus pyogenes [15]": {"tested_on": "Streptococcus pyogenes", "test": "Antibiofilm activity against drug-resistant Streptococcus pyogenes ATCC 19615 assessed as inhibition of biofilm formation incubated for 24 hrs by crystal violet staining based microtiter plate method"}, "[16]": {"tested_on": "Staphylococcus epidermidis", "test": "Antibiofilm activity against drug-resistant Staphylococcus epidermidis 70 D assessed as inhibition of biofilm formation incubated for 24 hrs by crystal violet staining based microtiter plate method"}, "Escherichia coli [17]": {"tested_on": "Escherichia coli", "test": "Antibacterial activity against Escherichia coli EHEC 933 assessed as inhibition of bacterial growth incubated for 24 hrs by microdilution assay"}, "Streptococcus pyogenes [18]": {"tested_on": "Streptococcus pyogenes", "test": "Antibacterial activity against Streptococcus pyogenes ATCC 19615 assessed as inhibition of bacterial growth incubated for 24 hrs by microdilution assay"}, "Enterococcus durans [19]": {"tested_on": "Enterococcus durans", "test": "Antimicrobial activity against Enterococcus durans BIO 0114 assessed assessed as reduction in bacterial growth at 1/4 times of drug MIC in the presence of Teicoplanin by microdilution method"}, "Staphylococcus aureus [20]": {"tested_on": "Staphylococcus aureus", "test": "Ratio of MBC to MIC against Staphylococcus aureus ATCC 43300"}, "Streptococcus mutans [21]": {"tested_on": "Streptococcus mutans", "test": "Antimicrobial activity against Streptococcus mutans ATCC 25175 assessed assessed as reduction in bacterial growth at 1/8 times of drug MIC in the presence of Ampicillin by microdilution method"}, "[22]": {"tested_on": "Staphylococcus epidermidis", "test": "Antimicrobial activity against Staphylococcus epidermidis 70 D assessed assessed as reduction in bacterial growth at 1/8 times of drug MIC in the presence of vancomycin by microdilution method"}, "Escherichia coli [23]": {"tested_on": "Escherichia coli", "test": "Antibacterial activity against Escherichia coli ETEC 2589093 assessed as inhibition of bacterial growth incubated for 24 hrs by microdilution assay"}, "Enterococcus faecalis [24]": {"tested_on": "Enterococcus faecalis", "test": "Antibiofilm activity against drug-resistant Enterococcus faecalis ATCC 51299 assessed as inhibition of biofilm formation incubated for 24 hrs by crystal violet staining based microtiter plate method"}, "Staphylococcus aureus [25]": {"tested_on": "Staphylococcus aureus", "test": "Antibacterial activity against Staphylococcus aureus MED 55 assessed as inhibition of bacterial growth incubated for 24 hrs by microdilution assay"}, "Staphylococcus aureus [26]": {"tested_on": "Staphylococcus aureus", "test": "Antimicrobial activity against Staphylococcus aureus MED 55 assessed assessed as reduction in bacterial growth at 1/2 times of drug MIC in the presence of Oxacillin by microdilution method"}, "Streptococcus agalactiae [27]": {"tested_on": "Streptococcus agalactiae", "test": "Antimicrobial activity against Streptococcus agalactiae ATCC 13813 assessed assessed as reduction in bacterial growth at 1/8 times of drug MIC in the presence of Oxacillin by microdilution method"}, "Streptococcus mutans [28]": {"tested_on": "Streptococcus mutans", "test": "Antibiofilm activity against drug-resistant Streptococcus mutans ATCC 25175 assessed as inhibition of biofilm formation incubated for 24 hrs by crystal violet staining based microtiter plate method"}, "Streptococcus agalactiae [29]": {"tested_on": "Streptococcus agalactiae", "test": "Antimicrobial activity against Streptococcus agalactiae ATCC 13813 assessed assessed as reduction in bacterial growth at 1/4 times of drug MIC in the presence of Oxacillin by microdilution method"}, "[30]": {"tested_on": "Staphylococcus epidermidis", "test": "Antimicrobial activity against Staphylococcus epidermidis ATCC 12228 assessed assessed as reduction in bacterial growth at 1/4 times of drug MIC in the presence of Oxacillin by microdilution method"}, "Acinetobacter baumannii": {"tested_on": "Acinetobacter baumannii", "test": "Antibacterial activity against Acinetobacter baumannii ATCC 19606 assessed as inhibition of bacterial growth incubated for 24 hrs by microdilution assay", "conditions": "ATCC 19606 = CIP 70.34 = JCM 6841"}, "Streptococcus pyogenes [31]": {"tested_on": "Streptococcus pyogenes", "test": "Ratio of MBC to MIC against Streptococcus pyogenes ATCC 19615"}, "Escherichia coli [32]": {"tested_on": "Escherichia coli", "test": "Antibacterial activity against Escherichia coli EIEC E20851 assessed as inhibition of bacterial growth incubated for 24 hrs by microdilution assay"}, "Enterococcus faecalis [33]": {"tested_on": "Enterococcus faecalis", "test": "Antimicrobial activity against Enterococcus faecalis ATCC 51299 assessed assessed as reduction in bacterial growth at 1/8 times of drug MIC in the presence of Teicoplanin by microdilution method"}, "Staphylococcus aureus [34]": {"tested_on": "Staphylococcus aureus", "test": "Bactericidal activity against Staphylococcus aureus MED 55 assessed as bacterial killing incubated for 24 hrs by microdilution assay"}, "Enterococcus faecalis [35]": {"tested_on": "Enterococcus faecalis", "test": "Bactericidal activity against Enterococcus faecalis ATCC 51299 assessed as bacterial killing incubated for 24 hrs by microdilution assay"}, "Staphylococcus aureus [36]": {"tested_on": "Staphylococcus aureus", "test": "Antibacterial activity against Staphylococcus aureus ATCC 43300 assessed as inhibition of bacterial growth incubated for 24 hrs by microdilution assay"}, "Streptococcus mutans [37]": {"tested_on": "Streptococcus mutans", "test": "Bactericidal activity against Streptococcus mutans ATCC 25175 assessed as bacterial killing incubated for 24 hrs by microdilution assay"}}, "data": [{"smiles": "CC(C)=CCC/C(C)=C/CC/C(C)=C/CO", "note": "[FARNESOL]", "values": [{"measurement": "MIC", "setting": "Enterococcus durans [1]", "value": 64, "unit": "µg/mL"}, {"measurement": "MIC", "setting": "Staphylococcus aureus [2]", "value": 32, "unit": "µg/mL"}, {"measurement": "MIC", "setting": "[3]", "value": 2, "unit": "µg/mL"}, {"measurement": "MIC", "setting": "Enterococcus durans [4]", "value": 64, "unit": "µg/mL"}, {"measurement": "MBC", "setting": "[5]", "value": "> 128", "unit": "µg/mL"}, {"measurement": "Ratio", "setting": "[6]", "value": 2}, {"measurement": "MIC", "setting": "Escherichia coli [7]", "value": "> 1020", "unit": "µg/mL"}, {"measurement": "MIC", "setting": "Escherichia coli [8]", "value": "> 1020", "unit": "µg/mL"}, {"measurement": "MBC", "setting": "[9]", "value": 128, "unit": "µg/mL"}, {"measurement": "MIC", "setting": "Escherichia coli [10]", "value": "> 1020", "unit": "µg/mL"}, {"measurement": "MIC", "setting": "[11]", "value": 64, "unit": "µg/mL"}, {"measurement": "MIC", "setting": "Streptococcus agalactiae [12]", "value": 4, "unit": "µg/mL"}, {"measurement": "MIC", "setting": "Streptococcus sobrinus", "value": 0.125, "unit": "µg/mL"}, {"measurement": "MIC", "setting": "Staphylococcus aureus [13]", "value": 2, "unit": "µg/mL"}, {"measurement": "MIC", "setting": "Shigella flexneri", "value": "> 1020", "unit": "µg/mL"}, {"measurement": "MIC", "setting": "Staphylococcus aureus [14]", "value": 128, "unit": "µg/mL"}, {"measurement": "MIC", "setting": "Streptococcus pyogenes [15]", "value": 16, "unit": "µg/mL"}, {"measurement": "MIC", "setting": "[16]", "value": 64, "unit": "µg/mL"}, {"measurement": "MIC", "setting": "Escherichia coli [17]", "value": "> 1020", "unit": "µg/mL"}, {"measurement": "MIC", "setting": "Streptococcus pyogenes [18]", "value": 16, "unit": "µg/mL"}, {"measurement": "MIC", "setting": "Enterococcus durans [19]", "value": 1, "unit": "µg/mL"}, {"measurement": "Ratio", "setting": "Staphylococcus aureus [20]", "value": ">4"}, {"measurement": "MIC", "setting": "Streptococcus mutans [21]", "value": 0.5, "unit": "µg/mL"}, {"measurement": "MIC", "setting": "[22]", "value": 2, "unit": "µg/mL"}, {"measurement": "MIC", "setting": "Escherichia coli [23]", "value": "> 1020", "unit": "µg/mL"}, {"measurement": "MIC", "setting": "Enterococcus faecalis [24]", "value": 128, "unit": "µg/mL"}, {"measurement": "MIC", "setting": "Staphylococcus aureus [25]", "value": 64, "unit": "µg/mL"}, {"measurement": "MIC", "setting": "Staphylococcus aureus [26]", "value": 128, "unit": "µg/mL"}, {"measurement": "MIC", "setting": "Streptococcus agalactiae [27]", "value": 0.25, "unit": "µg/mL"}, {"measurement": "MIC", "setting": "Streptococcus mutans [28]", "value": 128, "unit": "µg/mL"}, {"measurement": "MIC", "setting": "Streptococcus agalactiae [29]", "value": 0.25, "unit": "µg/mL"}, {"measurement": "MIC", "setting": "[30]", "value": 0.25, "unit": "µg/mL"}, {"measurement": "MIC", "setting": "Acinetobacter baumannii", "value": "> 1020", "unit": "µg/mL"}, {"measurement": "Ratio", "setting": "Streptococcus pyogenes [31]", "value": 4}, {"measurement": "MIC", "setting": "Escherichia coli [32]", "value": "> 1020", "unit": "µg/mL"}, {"measurement": "MIC", "setting": "Enterococcus faecalis [33]", "value": 1, "unit": "µg/mL"}, {"measurement": "MBC", "setting": "Staphylococcus aureus [34]", "value": 128, "unit": "µg/mL"}, {"measurement": "MBC", "setting": "Enterococcus faecalis [35]", "value": "> 512", "unit": "µg/mL"}, {"measurement": "MIC", "setting": "Staphylococcus aureus [36]", "value": 128, "unit": "µg/mL"}, {"measurement": "MBC", "setting": "Streptococcus mutans [37]", "value": "> 512", "unit": "µg/mL"}]}]}
